Values of other authors, collected in patent publication US9403784B1, “Fumarate compounds, pharmaceutical compositions thereof, and methods of use” (priority 2015, dated 2016).

aqueous solubility: poor aqueous solubility
SMILES: COC(=O)/C=C/C(=O)OC [DMF, dimethylfumarate]
